# Assay: Anticoagulant activity ex vivo, prothrombin time
# Assay type: in vivo, OFA rats
# Details: i.v.
# Method: OFA rats, fasted or otherwise, are anesthetized with pentobarbital (60 mg/kg i.p.). The carotid and the jugular are exposed and catheterized. The catheters are flushed with citrated (1/40) physiological solution. After installation of the catheters, a sample of 1.5 cm^3 of arterial blood is withdrawn into 0.109M citrate (1/9).
# 30 minutes later, the test product is admini- stered i.v. in a volume of 1 ml.
# Arterial blood samples (1.5 ml) are then withdrawn at 1 min 30 sec, 3 min, 5 min, 15 min, 30 min and 60 min.
# As each sample is withdrawn, 1.5 ml of citrated physiological solution is reinjected into the animal via the carotid.
# The blood tubes are centrifuged for 15 min at 4000 rpm (preparation of plasma).
# 100 μl of plasma are incubated with 200 μl of neoplastin calcium. The time of onset of the coagulation phenomenon is measured.
substance,measurement,value
hirudin,duration of in vivo activity,30 min
